Data taken from patent US12502384B2, “Pharmaceutical composition containing nitroxoline prodrug, and preparation method and application therefor” (Jiangsu Yahong Meditech Co., Ltd., priority 2020, dated 2025).

Test: Stability test: impurity content by HPLC (self-control)
Format: physicochemical
Conditions: for Impurity (%)/RRT relative retention time 0.71 / Impurity (%)/RRT relative retention time 0.78 / Impurity (%)/RRT relative retention time 0.83 / Impurity (%)/RRT relative retention time 0.89 / Impurity (%)/RRT relative retention time 0.9 / Impurity (%)/RRT relative retention time 1.06 / Impurity (%)/RRT relative retention time 1.95 / Impurity (%)/RRT relative retention time 0.93 / Impurity (%)/RRT relative retention time 1.97: — = not detected
Procedure: The impurity content of the immediate-release tablets obtained in Examples 1, 3, and 8 was determined respectively to evaluate the stability, and the steps were as follows:
1. Preparation Method for Test Solution I and Test Solution II
About 25 mg of a batch of nitroxoline prodrug was added to a 50 mL volumetric flask, followed by the addition of about 30 mL of acetonitrile. The resulting solution was ultrasonicated for 10 minutes, cooled to room temperature, diluted with acetonitrile to the constant volume, and mixed well. An appropriate amount of the above solution was filtered to obtain test solution I.
According to the above method, another batch of nitroxoline prodrug was used to obtain test solution II.
Test solution I was used to study the impurity content under normal temperature and different storage times (0 h, 6 h, 12 h, 18 h, 24 h), and the impurity content under 2 to 8° C. and a storage time of 24 hours.
Test solution II was used to study the impurity content under two different stability conditions (intermediate condition of 30° C./65% RH and accelerated condition of 40° C./75% RH, as shown in Table 2).
2. […]
3. Preparation Method for 0.2% Self-Control Solution
2 mL of test solution I, test solution II or test solution III was added to a 100 mL volumetric flask, and diluted with acetonitrile to the constant volume. 1 mL of the resulting solution was added to a 10 mL volumetric flask, diluted with acetonitrile to the constant volume, and mixed well to obtain the desired solution.
4. Determination of Impurity Content
Test solution I was placed at room temperature, and samples were collected respectively at 0 h, 6 h, 12 h, 18 h, 24 h. 0.2% self-control solution was formulated. Samples were injected respectively, and the single impurity content and total impurity content in test solution I at each time point were calculated according to the self-control.
Test solution I was placed in a refrigerator (2 to 8° C.), and samples were collected at 24 h. 0.2% self-control solution was formulated. Samples were injected respectively, and the single impurity content and total impurity content in test solution I at this time point were calculated according to the self-control.
Samples were collected from Test solution II at 0 day, at one month under the intermediate condition (30° C./65% RH) and at one month under the accelerated condition (40° C./75% RH). 0.2% self-control solution was formulated. Samples were injected respectively, and the single impurity content and total impurity content in test solution II at this time point were calculated according to the self-control. […]

[1] = Accelerated condition (40° C./75% RH) one month
[2] = Intermediate condition (30° C./65% RH) one month

## CC(C)C(=O)N1CCC[C@H]1C(=O)OCOc1ccc([N+](=O)[O-])c2cccnc12 [nitroxoline prodrug, (S)-(5-nitroquinolin-8-yloxy)methyl 1-isopropionylpyrrolidine-2-carboxylate]
[1]
  Total impurity (%): 1.038%
  Impurity (%)/RRT relative retention time 0.71: 0.005%
  Impurity (%)/RRT relative retention time 0.78: 0.792%
  Impurity (%)/RRT relative retention time 0.83: 0.02%
  Impurity (%)/RRT relative retention time 0.89: 0.018%
  Impurity (%)/RRT relative retention time 0.9: 0.012%
  Impurity (%)/RRT relative retention time 1.06: 0.173%
  Impurity (%)/RRT relative retention time 1.95: 0.018%
[2]
  Total impurity (%): 0.333%
  Impurity (%)/RRT relative retention time 0.78: 0.117%
  Impurity (%)/RRT relative retention time 0.89: 0.018%
  Impurity (%)/RRT relative retention time 0.9: 0.011%
  Impurity (%)/RRT relative retention time 1.06: 0.169%
  Impurity (%)/RRT relative retention time 1.95: 0.018%
Storage time 0 h(RT)
  Total impurity (%): 0.192%
  Impurity (%)/RRT relative retention time 0.89: 0.055%
  Impurity (%)/RRT relative retention time 0.9: 0.055%
  Impurity (%)/RRT relative retention time 0.93: 0.082%
Storage time 0 day
  Total impurity (%): 0.261%
  Impurity (%)/RRT relative retention time 0.78: 0.042%
  Impurity (%)/RRT relative retention time 0.89: 0.019%
  Impurity (%)/RRT relative retention time 0.9: 0.011%
  Impurity (%)/RRT relative retention time 1.06: 0.17%
  Impurity (%)/RRT relative retention time 1.95: 0.019%
Storage time 6 h(RT)
  Total impurity (%): 0.739%
  Impurity (%)/RRT relative retention time 0.71: 0.18%
  Impurity (%)/RRT relative retention time 0.89: 0.059%
  Impurity (%)/RRT relative retention time 0.9: 0.069%
  Impurity (%)/RRT relative retention time 0.93: 0.091%
  Impurity (%)/RRT relative retention time 1.95: 0.089%
  Impurity (%)/RRT relative retention time 1.97: 0.251%
Storage time 12 h(RT)
  Total impurity (%): 0.733%
  Impurity (%)/RRT relative retention time 0.71: 0.176%
  Impurity (%)/RRT relative retention time 0.89: 0.053%
  Impurity (%)/RRT relative retention time 0.9: 0.063%
  Impurity (%)/RRT relative retention time 0.93: 0.092%
  Impurity (%)/RRT relative retention time 1.95: 0.093%
  Impurity (%)/RRT relative retention time 1.97: 0.256%
Storage time 18 h(RT)
  Total impurity (%): 1.035%
  Impurity (%)/RRT relative retention time 0.71: 0.174%
  Impurity (%)/RRT relative retention time 0.83: 0.377%
  Impurity (%)/RRT relative retention time 0.89: 0.054%
  Impurity (%)/RRT relative retention time 0.9: 0.057%
  Impurity (%)/RRT relative retention time 0.93: 0.092%
  Impurity (%)/RRT relative retention time 1.95: 0.065%
  Impurity (%)/RRT relative retention time 1.97: 0.216%
Storage time 24 h(2-8° C.)
  Total impurity (%): 0.608%
  Impurity (%)/RRT relative retention time 0.71: 0.175%
  Impurity (%)/RRT relative retention time 0.83: 0.189%
  Impurity (%)/RRT relative retention time 0.89: 0.053%
  Impurity (%)/RRT relative retention time 0.9: 0.064%
  Impurity (%)/RRT relative retention time 0.93: 0.088%
  Impurity (%)/RRT relative retention time 1.06: 0.039%
Storage time 24 h(RT)
  Total impurity (%): 1.254%
  Impurity (%)/RRT relative retention time 0.71: 0.177%
  Impurity (%)/RRT relative retention time 0.83: 0.524%
  Impurity (%)/RRT relative retention time 0.89: 0.054%
  Impurity (%)/RRT relative retention time 0.9: 0.053%
  Impurity (%)/RRT relative retention time 0.93: 0.09%
  Impurity (%)/RRT relative retention time 1.95: 0.097%
  Impurity (%)/RRT relative retention time 1.97: 0.259%
